What is called IC50 is the midpoint of a concentration-inhibition curve.

Data on 19 compounds can be found in US20260132132A1, “3A,4,5,6-TETRAHYDRO-1 H-PYRAZOLO[3,4-C]PYRIDIN-7(7AH)-ONE DERIVATIVES AS FACTOR XIIA INHIBITORS” (KALVISTA PHARMACEUTICALS LIMITED, priority 2022, published 2026).

Molecules are shown by their SMILES.

Assay [1] addresses T1, Human Factor XIIa (hFXIIa) (Homo sapiens, UniProt P00748).
T1 construct: purchased Enzyme Research Laboratories
T1 sequence (P00748 373-615 limits assumed): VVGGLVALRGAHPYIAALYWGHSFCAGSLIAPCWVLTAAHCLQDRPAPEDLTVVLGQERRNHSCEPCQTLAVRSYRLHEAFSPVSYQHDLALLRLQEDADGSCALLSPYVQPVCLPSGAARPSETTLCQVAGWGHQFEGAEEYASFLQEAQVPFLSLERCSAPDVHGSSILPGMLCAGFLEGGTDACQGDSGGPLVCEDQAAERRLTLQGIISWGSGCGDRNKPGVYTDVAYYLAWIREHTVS
T1 sequence (P00748 20-372 partner limits assumed): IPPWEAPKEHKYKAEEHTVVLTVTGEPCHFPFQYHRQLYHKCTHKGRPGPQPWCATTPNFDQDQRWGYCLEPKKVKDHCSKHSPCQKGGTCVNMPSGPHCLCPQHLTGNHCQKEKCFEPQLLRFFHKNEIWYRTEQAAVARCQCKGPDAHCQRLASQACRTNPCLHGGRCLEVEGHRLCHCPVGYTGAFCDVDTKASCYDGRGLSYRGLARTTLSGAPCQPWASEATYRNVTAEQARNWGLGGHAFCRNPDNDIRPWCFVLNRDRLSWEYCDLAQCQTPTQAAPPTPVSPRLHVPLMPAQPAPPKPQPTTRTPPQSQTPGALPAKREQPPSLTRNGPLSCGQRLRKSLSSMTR
Description: Determination of Human Factor XIIa (hFXIIa) inhibition, fluorogenic substrate IC50 assay. Format: biochemical. Particulars: fluorogenic substrate H-DPro-Phe-Arg-AFC at Km, 25° C., read-out: Human FXIIa IC50. As to the method:
Determination of Human Factor XIIa (hFXIIa) inhibition
The Km for the cleavage of the substrate by hFXIIa was determined by standard transformation of the Michaelis-Menten equation, with subsequent inhibition assays performed at substrate Km concentration.

The target in assay [2] is FXa (Homo sapiens, UniProt P00742). As to the kind of experiment: Related protease inhibition: FXa, fluorogenic substrate. It is filed as biochemical. Particulars: fluorogenic substrate at Km, 25° C.; H1-H3 = % activity at 40 μM. Here is the method: Human serine protease enzyme Plasma Kallikrein, KLK1, FXa, Plasmin, Thrombin and Trypsin were assayed for enzymatic activity using an appropriate fluorogenic substrate at Km concentration, FXIa at fixed substrate concentration of 100 μM and various concentrations of the test compound.
Chain of FXa (P00742 235-488 limits assumed): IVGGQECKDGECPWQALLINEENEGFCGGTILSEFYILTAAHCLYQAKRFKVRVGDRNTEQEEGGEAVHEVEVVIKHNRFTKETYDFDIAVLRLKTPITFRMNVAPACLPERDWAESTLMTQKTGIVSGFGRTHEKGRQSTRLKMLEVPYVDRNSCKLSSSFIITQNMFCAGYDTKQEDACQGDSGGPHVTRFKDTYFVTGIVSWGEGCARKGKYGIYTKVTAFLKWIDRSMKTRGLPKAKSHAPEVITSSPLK
Chain of FXa (P00742 41-179 partner limits assumed): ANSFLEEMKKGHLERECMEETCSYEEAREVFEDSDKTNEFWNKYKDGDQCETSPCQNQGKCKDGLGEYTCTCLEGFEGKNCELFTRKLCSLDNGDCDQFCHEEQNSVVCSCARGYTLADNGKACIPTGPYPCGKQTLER

As for `O=C(NCC1CC1)c1nn(-c2cccc(Cl)c2)c2c1CCN(c1ccc3c(c1)CNCC3)C2=O` [Example 1074, 1-(3-chlorophenyl)-N-(cyclopropylmethyl)-7-oxo-6-(1,2,3,4-tetrahydroisoquinolin-7-yl)-4,5,6,7-tetrahydro-1H-pyrazolo[3,4-c]pyridine-3-carboxamide], the figures for the IC50 in assay [1] and in assay [2] were 1000 to 3000 nM and 10000 to 40000 nM, respectively.
In the case of `O=C(NCc1cccnc1)c1nn(-c2cccc(Cl)c2)c2c1CCN(c1cccc(CN3CCCCC3)c1)C2=O` [Example 1003, 1-(3-chlorophenyl)-7-oxo-6-(3-(piperidin-1-ylmethyl)phenyl)-N-(pyridin-3-ylmethyl)-4,5,6,7-tetrahydro-1H-pyrazolo[3,4-c]pyridine-3-carboxamide], the values for the IC50 in assay [1] and in assay [2] were 300 to 1000 nM and above 100000 nM, respectively.
On to `CCN1CCc2ccc(N3CCc4c(C(=O)N[C@H](CO)c5ccccc5)nn(-c5cccc(Cl)c5)c4C3=O)cc2C1` [Example 1051, (S)-1-(3-chlorophenyl)-6-(2-ethyl-1,2,3,4-tetrahydroisoquinolin-7-yl)-N-(2-hydroxy-1-phenylethyl)-7-oxo-4,5,6,7-tetrahydro-1H-pyrazolo[3,4-c]pyridine-3-carboxamide], for which the IC50 in assay [1] lay in the range of 10 to 100 nM; in assay [2] it was 3000 to 10000 nM.
The matching figures for `CCCN1CCc2ccc(N3CCc4c(C(=O)NCC5CC5)nn(-c5cccc(Cl)c5)c4C3=O)cc2C1=O` [Example 1211, 1-(3-chlorophenyl)-N-(cyclopropylmethyl)-7-oxo-6-(1-oxo-2-propyl-1,2,3,4-tetrahydroisoquinolin-7-yl)-4,5,6,7-tetrahydro-1H-pyrazolo[3,4-c]pyridine-3-carboxamide]: 300 to 1000 nM and above 40000 nM.
The matching figures for `Cc1cc(CNC(=O)c2nn(-c3cccc(Cl)c3)c3c2CCN(c2ccc4c(c2)C(=O)N(C)[C@@H](CO)CO4)C3=O)nn1C` [Example 1395, (S)-1-(3-chlorophenyl)-N-((1,5-dimethyl-1H-pyrazol-3-yl)methyl)-6-(3-(hydroxymethyl)-4-methyl-5-oxo-2,3,4,5-tetrahydrobenzo[f][1,4]oxazepin-7-yl)-7-oxo-4,5,6,7-tetrahydro-1H-pyrazolo[3,4-c]pyridine-3-carboxamide]: 1000 to 3000 nM and above 40000 nM.
The matching figures for `CN1CCc2ccc(N3CCc4c(C(=O)N[C@@H]5CCOC5)nn(-c5cccc(Cl)c5)c4C3=O)cc2C1=O` [Example 1338, (R)-1-(3-chlorophenyl)-6-(2-methyl-1-oxo-1,2,3,4-tetrahydroisoquinolin-7-yl)-7-oxo-N-(tetrahydrofuran-3-yl)-4,5,6,7-tetrahydro-1H-pyrazolo[3,4-c]pyridine-3-carboxamide]: 300 to 1000 nM and above 40000 nM.
In the case of `C[C@H](CO)NC(=O)c1nn(-c2cccc(Cl)c2)c2c1CCN(c1ccc3c(c1)C(=O)N(C)CC3)C2=O` [Example 1337, (R)-1-(3-chlorophenyl)-N-(1-hydroxypropan-2-yl)-6-(2-methyl-1-oxo-1,2,3,4-tetrahydroisoquinolin-7-yl)-7-oxo-4,5,6,7-tetrahydro-1H-pyrazolo[3,4-c]pyridine-3-carboxamide], the IC50 in assay [1] is 300 to 1000 nM; in assay [2] it was above 40000 nM.
The matching figures for `O=C(NCC1CC1)c1nn(-c2cccc(Cl)c2)c2c1CCN(c1cccc(N3CCCCC3=O)c1)C2=O` [Example 1285, 1-(3-chlorophenyl)-N-(cyclopropylmethyl)-7-oxo-6-(3-(2-oxopiperidin-1-yl)phenyl)-4,5,6,7-tetrahydro-1H-pyrazolo[3,4-c]pyridine-3-carboxamide]: 1000 to 3000 nM and above 40000 nM.
On to `Cc1cc(CNC(=O)c2nn(-c3cccc(Cl)c3)c3c(=O)n(-c4ccc5c(c4)C(=O)N(C)CC5)c(C)nc23)n[nH]1` [Example 3020, 1-(3-chlorophenyl)-5-methyl-6-(2-methyl-1-oxo-1,2,3,4-tetrahydroisoquinolin-7-yl)-N-((5-methyl-1H-pyrazol-3-yl)methyl)-7-oxo-6,7-dihydro-1H-pyrazolo[4,3-d]pyrimidine-3-carboxamide], for which the IC50 in assay [1] lay within 100 to 300 nM; in assay [2], 10000 to 40000 nM.
The matching figures for `Cc1nc2c(C#N)nn(-c3cccc(Cl)c3)c2c(=O)n1-c1ccc2c(c1)CN(CCO)CC2` [Example 3012, 1-(3-chlorophenyl)-6-(2-(2-hydroxyethyl)-1,2,3,4-tetrahydroisoquinolin-7-yl)-5-methyl-7-oxo-6,7-dihydro-1H-pyrazolo[4,3-d]pyrimidine-3-carbonitrile]: 100 to 300 nM and 1000 to 3000 nM.
In the same order, the values of `O=C(NC1CCOCC1)c1nn(-c2cccc(Cl)c2)c2c1CCN(c1ccc3c(c1)CN(CCO)CC3)C2=O` [Example 1076, 1-(3-chlorophenyl)-6-(2-(2-hydroxyethyl)-1,2,3,4-tetrahydroisoquinolin-7-yl)-7-oxo-N-(tetrahydro-2H-pyran-4-yl)-4,5,6,7-tetrahydro-1H-pyrazolo[3,4-c]pyridine-3-carboxamide] are 100 to 300 nM and 10000 to 40000 nM.
As to `Cc1cc(CNC(=O)c2nn(-c3cccc(Cl)c3F)c3c2CCN(c2ccc4c(c2)C(=O)N(C)CC4)C3=O)n[nH]1` [Example 2040, 1-(3-chloro-2-fluorophenyl)-6-(2-methyl-1-oxo-1,2,3,4-tetrahydroisoquinolin-7-yl)-N-((5-methyl-1H-pyrazol-3-yl)methyl)-7-oxo-4,5,6,7-tetrahydro-1H-pyrazolo[3,4-c]pyridine-3-carboxamide], the IC50 was 10 to 100 nM in assay [1] and 10000 to 40000 nM in assay [2].
In the same order, the values of `Cc1cn(C)nc1CNC(=O)c1nn(-c2cccc(Cl)c2)c2c(=O)n(-c3ccc4c(c3)CN(CCO)CC4)c(C)nc12` [Example 3005, 1-(3-Chlorophenyl)-N-[(1,4-dimethylpyrazol-3-yl)methyl]-6-[2-(2-hydroxyethyl)-3,4-dihydro-1H-isoquinolin-7-yl]-5-methyl-7-oxo-pyrazolo[4,3-d]pyrimidine-3-carboxamide] are 10 to 100 nM and 10000 to 40000 nM.
In the case of `Cc1cc(CNC(=O)c2nn(-c3cccc(Cl)c3)c3c2CCN(c2ccc4c(c2)C(=O)N(CCO)[C@H](C)CO4)C3=O)n[nH]1` [Example 1373, (R)-1-(3-chlorophenyl)-6-(4-(2-hydroxyethyl)-3-methyl-5-oxo-2,3,4,5-tetrahydrobenzo[f][1,4]oxazepin-7-yl)-N-((5-methyl-1H-pyrazol-3-yl)methyl)-7-oxo-4,5,6,7-tetrahydro-1H-pyrazolo[3,4-c]pyridine-3-carboxamide], the IC50 is 300 to 1000 nM in assay [1] and above 40000 nM in assay [2].
`C[C@H]1CN(CCO)Cc2cc(N3CCc4c(C(=O)NCC5CC5)nn(-c5cccc(Cl)c5)c4C3=O)ccc21` [Example 1152, (R)-1-(3-chlorophenyl)-N-(cyclopropylmethyl)-6-(2-(2-hydroxyethyl)-4-methyl-1,2,3,4-tetrahydroisoquinolin-7-yl)-7-oxo-4,5,6,7-tetrahydro-1H-pyrazolo[3,4-c]pyridine-3-carboxamide]: the IC50 in assay [1] is 300 to 1000 nM; in assay [2], above 40000 nM.
The matching figures for `CN1CCc2ccc(N3CCc4c(C(=O)NCC5(CO)CC5)nn(-c5cccc(Cl)c5)c4C3=O)cc2C1=O` [Example 1250, 1-(3-chlorophenyl)-N-((1-(hydroxymethyl)cyclopropyl)methyl)-6-(2-methyl-1-oxo-1,2,3,4-tetrahydroisoquinolin-7-yl)-7-oxo-4,5,6,7-tetrahydro-1H-pyrazolo[3,4-c]pyridine-3-carboxamide]: 300 to 1000 nM and above 40000 nM.
In the same order, the values of `CN1CCc2ccc(N3CCc4c(C(=O)NC5CCOC5(C)C)nn(-c5cccc(Cl)c5)c4C3=O)cc2C1=O` (centres unmarked) [Example 1197, 1-(3-chlorophenyl)-N-(2,2-dimethyltetrahydrofuran-3-yl)-6-(2-methyl-1-oxo-1,2,3,4-tetrahydroisoquinolin-7-yl)-7-oxo-4,5,6,7-tetrahydro-1H-pyrazolo[3,4-c]pyridine-3-carboxamide] are 300 to 1000 nM and above 40000 nM.
In the same order, the values of `CCNC(=O)c1nn(-c2cccc(Cl)c2)c2c1CCN(c1cccc(-n3ccn(C)c3=O)c1)C2=O` [Example 1399, 1-(3-chlorophenyl)-N-ethyl-6-(3-(3-methyl-2-oxo-2,3-dihydro-1H-imidazol-1-yl)phenyl)-7-oxo-4,5,6,7-tetrahydro-1H-pyrazolo[3,4-c]pyridine-3-carboxamide] are 1000 to 3000 nM and above 40000 nM.
Take `CCNC(=O)c1nn(-c2cccc(Cl)c2)c2c1CCN(c1ccc3c(c1)C(=O)N(CCO)[C@@H](C)CO3)C2=O` [Example 1381, (S)-1-(3-chlorophenyl)-N-ethyl-6-(4-(2-hydroxyethyl)-3-methyl-5-oxo-2,3,4,5-tetrahydrobenzo[f][1,4]oxazepin-7-yl)-7-oxo-4,5,6,7-tetrahydro-1H-pyrazolo[3,4-c]pyridine-3-carboxamide]: the IC50 is 1000 to 3000 nM in assay [1] and above 40000 nM in assay [2].
